# From the supplement of paper PMC11208160
# Test: recombinant barcode read abundance after kanamycin selection (control-corrected) (log10(CPM+1)); higher = more efficient recombination; sequences stand for … in AGTGCAGAGAAAATCGGCCAGTTTTCTCTGCCTGCAGTCCGCATGCCGT…AGATTTATGCAGCGGACTGCCTTTCTCCCAAAGTGATAAACCGGACAGTATCATGGACCGGTTTTCCCGGTAATCCGTATTTGCAAGGTTGGTTTCACT; site = the 11-nt target
# Outline: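 In E. coli, a pooled library matched targets to IS621 bridge RNA target-binding loops and was introduced alongside a donor plasmid. Cells went onto chloramphenicol/ampicillin/kanamycin with 0.1 mM IPTG or onto chloramphenicol/ampicillin LB agar as control, in duplicate. Recombination efficiency, from recombinant-junction barcodes as counts per million, is averaged and control-corrected. It is reported as log10(CPM+1).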
# 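Also: IS621 recombinase and bridge RNA in Escherichia coli cells.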
row,Sequence,recombinant barcode read abundance (log10)
1,TATAACACTTGGGTTCTAACCTGTTGCCG (site CTACTATCTGC),0.0288
2,TATAACACTTGGGTTCTAACCTGTTGCCG (site TATAACACTCG),0.246
3,TATAACTCTTGGGTTCTAACCTGTTGCCT (site AATAACTCTAG),0.0281
4,TATAACTCTTGGGTTCTAACCTGTTGCCT (site CATAACTCTAG),0.198
5,TATAACTCTTGGGTTCTAACCTGTTGCCT (site GATAACTCTAG),0.0978
6,TATAACTCTTGGGTTCTAACCTGTTGCCT (site TATAACTCTAG),0.549
7,TATACTGCTTGGGTTCTAACCTGTTGCCT (site TATACTACTAG),0.0148
8,TATACTGCTTGGGTTCTAACCTGTTGCCT (site TATACTGCTAG),0.0304
9,TATAGAACTTGGGTTCTAACCTGTTGCCT (site TATAAAACTAG),0.119
10,TATAGAACTTGGGTTCTAACCTGTTGCCT (site TATACAACTAG),0.0987
11,TATAGAACTTGGGTTCTAACCTGTTGCCT (site TATAGAACTAG),0.192
12,TATAGAACTTGGGTTCTAACCTGTTGCCT (site TATATAACTAG),0.015
13,TATCCGACTTGGGTTCTAACCTGTTGCCC (site TATCCGACTAG),0.238
14,TATCCGACTTGGGTTCTAACCTGTTGCCC (site TATCCGACTCG),0.146
15,TATCCGACTTGGGTTCTAACCTGTTGCCC (site TATCCGACTGG),0.688
16,TATCCGACTTGGGTTCTAACCTGTTGCCC (site TATCCGACTTG),0.125
17,TATCGCACTTGGGTTCTAACCTGTTGCCT (site TATCGCACTAG),0.0277
18,TATCGCACTTGGGTTCTAACCTGTTGCCT (site TATGGGACTAG),0.0986
19,TATCGGGCTTGGGTTCTAACCTGTTGCAG (site ATGGACCCTGA),0.0316
20,TATCGGGCTTGGGTTCTAACCTGTTGCAG (site TATCGGGCTCT),1.57
21,TATCGTCCTTGGGTTCTAACCTGTTGCAT (site TACCGTCCTAT),0.0483
22,TATCGTCCTTGGGTTCTAACCTGTTGCAT (site TATCGTCCTAT),0.803

row,Sequence,recombinant barcode read abundance (log10)
1,TATCTGACTTGGGTTCTAACCTGTTGCCT (site TATCAGACTTG),0.0204
2,TATCTGACTTGGGTTCTAACCTGTTGCCT (site TATCTGACTAG),0.202
3,TATGCTACTTGGGTTCTAACCTGTTGCAT (site AATGCTACTAT),1.03
4,TATGCTACTTGGGTTCTAACCTGTTGCAT (site TATGCTACTAT),0.371
5,TATGCTTCTTGGGTTCTAACCTGTTGCTT (site TATGCTTCTAA),0.0973
6,TATGCTTCTTGGGTTCTAACCTGTTGCTT (site TATGGTTCTAG),0.0104
7,TATGGGTCTTGGGTTCTAACCTGTTGCCT (site TATGGGTCTAG),1.04
8,TATGGGTCTTGGGTTCTAACCTGTTGCCT (site TGTGGGTCTAG),0.209
9,TATGTAGCTTGGGTTCTAACCTGTTGCCG (site TATGTAGCTAG),0.486
10,TATGTAGCTTGGGTTCTAACCTGTTGCCG (site TATGTAGCTCG),1.04
11,TATGTAGCTTGGGTTCTAACCTGTTGCCG (site TATGTAGCTGG),0.107
12,TATGTAGCTTGGGTTCTAACCTGTTGCCG (site TATGTAGCTTG),0.0858
13,TATGTAGCTTGGGTTCTAACCTGTTGCCT (site TATGTAGCTAG),0.677
14,TATGTAGCTTGGGTTCTAACCTGTTGCCT (site TATGTAGCTCG),0.353
15,TATGTAGCTTGGGTTCTAACCTGTTGCCT (site TATGTAGCTGG),0.103
16,TATGTAGCTTGGGTTCTAACCTGTTGCCT (site TATGTAGCTTG),0.129
17,TATTAACCTTGGGTTCTAACCTGTTGCCT (site TATTAACCTAG),0.329
18,TATTAACCTTGGGTTCTAACCTGTTGCCT (site TATTACCCTAG),0.117
19,TATTAACCTTGGGTTCTAACCTGTTGCCT (site TATTAGCCTAG),0.0897
20,TATTAACCTTGGGTTCTAACCTGTTGCCT (site TATTATCCTAG),0.0539
21,TATTAGCCTTGGGTTCTAACCTGTTGCCT (site TATTAACCTAG),0.138
22,TATTAGCCTTGGGTTCTAACCTGTTGCCT (site TATTACCCTAG),0.283

row,Sequence,recombinant barcode read abundance (log10)
1,TATTAGCCTTGGGTTCTAACCTGTTGCCT (site TATTAGCCTAG),0.123
2,TATTAGCCTTGGGTTCTAACCTGTTGCCT (site TATTATCCTAG),0.27
3,TATTATCCTTGGGTTCTAACCTGTTGCCT (site TATTAACCTAG),0.341
4,TATTATCCTTGGGTTCTAACCTGTTGCCT (site TATTACCCTAG),0.0929
5,TATTATCCTTGGGTTCTAACCTGTTGCCT (site TATTAGCCTAG),0.121
6,TATTATCCTTGGGTTCTAACCTGTTGCCT (site TATTATCCTAG),0.0487
7,TATTCTACTTGGGTTCTAACCTGTTGCGA (site TATTCTACTAC),0.0359
8,TATTCTACTTGGGTTCTAACCTGTTGCGA (site TATTCTACTCC),0.0347
9,TATTCTACTTGGGTTCTAACCTGTTGCGA (site TATTCTACTGC),0.165
10,TATTCTACTTGGGTTCTAACCTGTTGCGA (site TATTCTACTTC),0.0707
11,TATTCTCCTTGGGTTCTAACCTGTTGCAT (site TATTCTCCTAA),0.0409
12,TATTCTCCTTGGGTTCTAACCTGTTGCAT (site TATTCTCCTAC),0.235
13,TATTCTCCTTGGGTTCTAACCTGTTGCAT (site TATTCTCCTAG),0.00827
14,TATTCTCCTTGGGTTCTAACCTGTTGCAT (site TATTCTCCTAT),0.186
15,TATTGGACTTGGGTTCTAACCTGTTGCAA (site TATTGGACTAT),0.218
16,TATTGGACTTGGGTTCTAACCTGTTGCAA (site TATTGGACTCT),0.017
17,TATTGGACTTGGGTTCTAACCTGTTGCAA (site TATTGGACTGT),0.0217
18,TATTGGACTTGGGTTCTAACCTGTTGCAA (site TATTGGACTTT),0.303
19,TATTGTCCTTGGGTTCTAACCTGTTGCCT (site TATAGTACTAG),0.0216
20,TATTGTCCTTGGGTTCTAACCTGTTGCCT (site TATTGTCCTAG),0.124
21,TATTTGTCTTGGGTTCTAACCTGTTGCTA (site TAGTCGTCTTA),0.148
22,TATTTGTCTTGGGTTCTAACCTGTTGCTA (site TATTTGTCTTA),0.486

row,Sequence,recombinant barcode read abundance (log10)
1,TCAAAGGCTTGGGTTCTAACCTGTTGCCT (site TCAAAGGCTAG),0.0805
2,TCAAAGGCTTGGGTTCTAACCTGTTGCCT (site TCCAAGGCTAG),0.238
3,TCAAAGGCTTGGGTTCTAACCTGTTGCCT (site TCGAAGGCTAG),0.13
4,TCAAAGGCTTGGGTTCTAACCTGTTGCCT (site TCTAAGGCTAG),0.0999
5,TCAAATTCTTGGGTTCTAACCTGTTGCCT (site TCAAATTCTAG),0.0401
6,TCAAATTCTTGGGTTCTAACCTGTTGCCT (site TCACATTCTAG),0.0721
7,TCAAATTCTTGGGTTCTAACCTGTTGCCT (site TCAGATTCTAG),0.108
8,TCAAATTCTTGGGTTCTAACCTGTTGCCT (site TCATATTCTAG),0.0151
9,TCACAGACTTGGGTTCTAACCTGTTGCCG (site GTTAGCCCTAT),0.11
10,TCACAGACTTGGGTTCTAACCTGTTGCCG (site TCACAGACTCG),1.2
11,TCACGGTCTTGGGTTCTAACCTGTTGCCT (site TCACGGTCTAG),0.598
12,TCACGGTCTTGGGTTCTAACCTGTTGCCT (site TCTCGGTCTAG),0.0701
13,TCACGTCCTTGGGTTCTAACCTGTTGCAT (site TCACGTCCTAA),0.0411
14,TCACGTCCTTGGGTTCTAACCTGTTGCAT (site TCACGTCCTAC),0.187
15,TCACGTCCTTGGGTTCTAACCTGTTGCAT (site TCACGTCCTAG),0.745
16,TCACGTCCTTGGGTTCTAACCTGTTGCAT (site TCACGTCCTAT),0.576
17,TCACGTCCTTGGGTTCTAACCTGTTGCCT (site TCACGTCCTAA),0.403
18,TCACGTCCTTGGGTTCTAACCTGTTGCCT (site TCACGTCCTAC),0.0778
19,TCACGTCCTTGGGTTCTAACCTGTTGCCT (site TCACGTCCTAG),0.456
20,TCACGTCCTTGGGTTCTAACCTGTTGCCT (site TCACGTCCTAT),0.144
